Laboratory results reported in patent US20230391841A1, “MACROCYCLIC PEPTIDES” (Herantis Pharma OYJ, priority 2019, published 2023).
Bridge positions count the residues as written; N and C are the ends. Peptide text beside a SMILES is read from it.

Assays:
[1] = system: dopaminergic TH-positive neurons injured with MPP+; assay: Neuroprotective effect on dopaminergic TH-positive neurons injured with MPP+ (primary mesencephalic culture); assay type: cell-based, rat; conditions: MPP+ injured TH-positive neurons
Description: Neuroprotective effects of compounds 1-26 (SEQ ID NO: 1-26) were tested in an in vitro model in which primary cultures of rat embryonic mesencephalic neurons were stressed with MPP+ , the active metabolite of neurotoxin 1-methyl-4-phenyl-1,2,3,6-tetrahydropyridine (MPTP). MPP+ kills dopaminergic (TH-positive) neurons via a variety of toxic mechanisms, including mitochondrial dysfunction, generation of peroxynitrite, oxidative stress, ER stress and induction of apoptosis.
Culture of mesencephalic neurons. Rat dopaminergic neurons were cultured as described by Visanji et al., 2008. Briefly, the midbrains obtained from 15-day-old rat embryos (Janvier, France) were dissected, and the ventral portion of the mesencephalic flexure, a region of the developing brain rich in dopaminergic neurons, was used for the cell preparations. The midbrain cells were dissociated by trypsinization for 20 min at 37° C. (solution at a final concentration of 0.05% trypsin and 0.02% EDTA). The reaction was stopped by adding Dulbecco's modified Eagle's medium (DMEM) containing DNAase I grade II (0.5 mg/mL) and 10% of fetal calf serum (FCS). Cells were then mechanically dissociated by 3 passages through a 10 ml pipette. Cells were then centrifuged at 180×g for 10 min at +4° C. on a layer of BSA (3.5%) in L15 medium. The cell pellets were re-suspended in a defined culture serum-free medium consisting of Neurobasal (Invitrogen) supplemented with B27 (2%), L-glutamine (2 mM) and 2% of PS solution and 1Ong/ml of Brain-derived neurotrophic factor (BDNF) and 1 ng/mL of Glial-Derived Neurotrophic Factor (GDNF). Viable cells were counted in a Neubauer cytometer using the trypan blue exclusion test. The cells were seeded at a density of 40 000 cells/well in 96 well-plates (pre-coated with poly-L-lysine) and maintained in a humidified incubator at 37° C. in 5% CO2/95% air atmosphere. Half of the medium was changed every 2 days with fresh medium. On 96-wells plates, only 60 wells are used. To avoid any edge effect, the first and last lines and columns were not used for culture and were filled with sterile water.
CDNF as well as linear and macrocyclic compounds […] (SEQ ID NOs: 1-26) were tested. On day 6 of culture, the compounds were dissolved in culture medium and then pre-is incubated with mesencephalic neurons for 4 hours before the MPP+ application. Four hours after the preincubation of the compounds, MPP+ was added to a final concentration of 4 pM, diluted in control medium still in presence of compounds for 48 h.
48 h after intoxication, the cells were fixed by a solution of 4% paraformaldehyde in PBS, pH 7.3 for 20 min at room temperature. The cells were washed twice in PBS, and then permeabilized and non-specific sites were blocked with a solution of PBS containing 0.1% of saponin and 1% FCS for 15 min at room temperature. Next, the cells were incubated with (a) a monoclonal antibody anti-Tyrosine Hydroxylase (TH) produced in mouse at dilution of 1:10000 and with (b) a polyclonal antibody anti-alpha-synuclein (α-syn) antibody produced in rabbit at dilution of 1:400 in PBS containing 1% FCS, 0.1% saponin, for 2 h at room temperature.
48 h after intoxication, the cell culture supernatant was removed, and the cells fixed by a solution of 4% paraformaldehyde in PBS, pH 7.3 for 20 min at room temperature. The cells were washed twice in PBS, and then permeabilized and non-specific sites were blocked with a solution of PBS containing 0.1% of saponin and 1% FCS for 15 min at room temperature. Then, the cells were incubated with a) a monoclonal Anti-Tyrosine Hydroxylase (TH) antibody produced in mouse at dilution of 1:10000 in PBS containing 1% FCS, 0.1% saponin, for 2 hours at room temperature, and b) a polyclonal anti-postsynaptic density protein-95 (PSD-95) antibody produced in rabbit at dilution of 1:200 in PBS containing 1% FCS, 0.1% saponin, for 2 h at room temperature. This antibody stains specifically synapses. […]

rat hepatocytes = assay: In vitro metabolic stability in rat hepatocytes; assay type: in vitro ADME; conditions: 1 μM, 37° C., up to 60 min
Description: The linear or macrocyclic compounds 1-14 and 23-26 (SEQ ID NOs: […]) were incubated in concentration 1 μM with pooled cryopreserved rat hepatocytes (Sprague-Dawley, male; 400 pl, 1.0 million viable cells/ml for compounds 1-8, 11-12 and 23-26 or 100 μl, 0.1 million viable cells/ml for compounds 9-10 and 13-14) for different time points (0, 10, 20, 40 or 60 min) at 37° C. The cell density and viability were determined by trypan blue exclusion method. The incubation was terminated by acetonitrile. The collected samples were centrifuged for 20 min at 2272×g and analyzed. The samples were analyzed is by UHPLC/PDA with high resolution mass spectrometry (QE-Orbitrap-MS on DDI mode) (compounds 1-8, 11-12 and 23-26) or HHPLC-ToF mass spectrometry (for compounds 9-and 13-14) to monitor disappearance of the compound. Verapramil 1 μM was used as a disappearance rate control. The analytical method was optimized by using the parent compounds for optimum chromatographic properties (peak shape and retention) and mass spectrometric ionization. The Ion chromatograms were extracted from the total ion chromatograms using calculated monoisotopic accurate masses with 5 mDa window. Disappearance was based on LC/MS peak areas, marking 0 min as 100%. The first-order rate constants k (min-1) of the metabolism were obtained from the slope of time versus logarithm (% of remaining compound) plot using Excel software. The in vitro half-life (t1/2) of study compound is defined as: t1/2In2/k. Calculated half-life is based on compound disappearance in rat liver hepatocytes.

[2] = In vivo pharmacokinetics after intravenous administration to rats; set-up: species or system male Sprague-Dawley rats; conditions: for AUC(0-inf) / MRT / Vd / half-life / clearance: rat, 5 mg/kg intravenous bolus, male Sprague-Dawley rats; for AUC(0-inf) / MRT / Vd / half-life: in vivo; for clearance: plasma, read-out: CI
Description: The clearance and elimination of peptides can be mediated by multiple processes in vivo, including metabolism and renal elimination.
Test compounds were intravenously (i.v.) administered to male Spraque-Dawley rats (about is six weeks old, n=3 per compound) at 5 mg/kg. Blood samples were collected from jugular vein through implanted in-dwelling catheters (250 pl blood) into labelled polypropylene tubes containing anticoagulant (heparin) at 2 min, 5 min,15 min, 30 min, 1 h, 2 h and 4 h after compound administration and held on wet ice for a maximum of 30 minutes. The blood samples were centrifuged for plasma separation (4 °C, 21100 G, 5 min). Tolbutamide 500ng/ml with 10% TFA in acetonitrile or in MeCN was used as an internal standard solution.
The standard samples were prepared into rat plasma by spiking the matrix into concentrations 2-10 000 ng/ml of the analyte, respectively, and otherwise treated as the samples. To 50 pl aliquots of sample plasma was added 200 pl of internal standard. Samples were mixed (150 rpm, 15 min) and centrifugated (3000 rpm, 15min). The analytical method was optimized for reaction monitoring chromatographic (peak shape & retention) shifts and mass spectrometric properties (ionization efficiency, MS/MS detection). Supernatants were analyzed by UHPLC-TOF mass spectrometry using electrospray ionization.

SMILES | potency of macrocyclic peptide versus its linear counterpart [1] | stability in rat hepatocytes as compared to linear counterpart (rat hepatocytes) | AUC(0-inf) [2] [ng·h/mL] | MRT [2] [min] | Vd [2] [L/kg] | half-life [2] [min] | clearance [2] [mL/min/kg] | plasma half-life, volume of distribution and mean residence time ([2]; intravenous administration to rats) | blood retention behavior ([2]; intravenous, 5 mg/kg, rats) | time detected in the plasma after administration ([2]; intravenous, 5 mg/kg, rats) [h]
C[C@@H]1NC(=O)CNC(=O)[C@H](CCCNC(=N)N)NC(=O)[C@@H]2CSSC[C@H](NC1=O)C(=O)N[C@@H](C)C(=O)N[C@@H](CCC(=O)O)C(=O)N[C@@H](CCCCN)C(=O)N[C@@H]([C@@H](C)O)C(=O)N[C@@H](Cc1c[nH]c3ccccc13)C(=O)NCC(=O)N[C@@H](CCC(=O)O)C(=O)N[C@@H](CCC(=O)O)C(=O)N2 [Compound 24, WGEECRGACAEKT] (cyclo(ACAEKTWGEECRG); disulfide 2-11) | comparable | significantly improved stability | – | – | – | – | – | – | – | –
CC[C@H](C)[C@@H]1NC(=O)[C@H](CCC(N)=O)NC(=O)[C@H](CCCCN)NC(=O)[C@H](CC(C)C)NC(=O)[C@H](CCC(=O)O)NC(=O)[C@H](C)NC(=O)[C@H](C(C)C)NC(=O)[C@H](CCCNC(=N)N)NC(=O)[C@H](CCSC)NC(=O)[C@H](CCCCN)NC(=O)[C@H](CCCNC(=N)N)NC(=O)[C@H](CC(C)C)NC(=O)[C@H](CC(=O)O)NC(=O)[C@H](C(C)C)NC(=O)[C@H](CCC(=O)O)NC(=O)[C@H](C)NC(=O)[C@@H]2CSSC[C@H](NC(=O)[C@H](CCC(=O)O)NC(=O)[C@H](CCC(=O)O)NC(=O)CNC(=O)[C@H](Cc3c[nH]c4ccccc34)NC(=O)[C@H](CO)NC(=O)[C@H](Cc3c[nH]cn3)NC(=O)[C@H](CC(C)C)NC1=O)C(=O)N[C@@H](CCCNC(=N)N)C(=O)N[C@@H](C)C(=O)N2 [Compound 2] (cyclo(ACAEVDLRKMRVAELKQILHSWGEECR); disulfide 2-26) | comparable | significantly improved stability | 4440 | 1.01 | 0.02 | 3.78 | 20.6 | – | – | –
CC[C@H](C)[C@@H]1NC(=O)[C@H](CCC(N)=O)NC(=O)[C@H](CCCCN)NC(=O)[C@H](CC(C)C)NC(=O)[C@H](CCC(=O)O)NC(=O)[C@H](C)NC(=O)[C@H](C(C)C)NC(=O)[C@H](CCCNC(=N)N)NC(=O)[C@H](CCSC)NC(=O)[C@H](CCCCN)NC(=O)[C@H](CCC(=O)O)NC(=O)[C@H](C)NC(=O)[C@@H]2CSSC[C@H](NC(=O)[C@H](CCC(=O)O)NC(=O)[C@H](CCC(=O)O)NC(=O)CNC(=O)[C@H](Cc3c[nH]c4ccccc34)NC(=O)[C@H](CO)NC(=O)[C@H](Cc3c[nH]cn3)NC(=O)[C@H](CC(C)C)NC1=O)C(=O)N[C@@H](CCCNC(=N)N)C(=O)N[C@@H](C)C(=O)N2 [Compound 6] (cyclo(ACAEKMRVAELKQILHSWGEECR); disulfide 2-22) | comparable | significantly improved stability | – | – | – | – | – | – | – | –
CC[C@H](C)[C@@H]1NC(=O)[C@H](CCCCN)NC(=O)[C@H](CCCCN)NC(=O)[C@H](CC(C)C)NC(=O)[C@H](CCC(=O)O)NC(=O)[C@H](CCCCN)NC(=O)[C@H](C(C)C)NC(=O)[C@H](CCCNC(=N)N)NC(=O)[C@H](CC(C)C)NC(=O)[C@H](CCCCN)NC(=O)[C@H](CCC(=O)O)NC(=O)[C@H](C)NC(=O)[C@@H]2CSSC[C@H](NC(=O)[C@H]([C@@H](C)O)NC(=O)[C@H](CCC(=O)O)NC(=O)CNC(=O)[C@H](Cc3c[nH]c4ccccc34)NC(=O)[C@H](CC(=O)O)NC(=O)[C@H](CC(=O)O)NC(=O)[C@H](CC(C)C)NC1=O)C(=O)N[C@@H](CCCCN)C(=O)NCC(=O)N2 [Compound 8] (cyclo(AEKLRVKELKKILDDWGETCKGC); disulfide 20-23) | comparable | significantly improved stability | – | – | – | – | – | – | – | –
C[C@@H]1NC(=O)[C@@H]2CSSC[C@H](NC(=O)[C@H]([C@@H](C)O)NC(=O)[C@H](CCC(=O)O)NC(=O)CNC(=O)[C@H](Cc3c[nH]c4ccccc34)NC(=O)[C@H](CO)NC(=O)[C@H](CCCCN)NC(=O)[C@H](CCC(=O)O)NC1=O)C(=O)N[C@@H](CCCCN)C(=O)NCC(=O)N2 [Compound 14, WGETCKGCAEKS] (cyclo(AEKSWGETCKGC); disulfide 9-12) | comparable | significantly improved stability | 4970 | 7.05 | 0.12 | 15.8 | 16.8 | improved | improved blood retention behavior | ≥ 2
C[C@@H]1NC(=O)[C@@H]2CSSC[C@H](NC(=O)[C@H](CCC(=O)O)NC(=O)[C@H](CCC(=O)O)NC(=O)CNC(=O)[C@H](Cc3c[nH]c4ccccc34)NC(=O)[C@H]([C@@H](C)O)NC(=O)[C@H](CCCCN)NC(=O)[C@H](CCC(=O)O)NC1=O)C(=O)N[C@@H](CCCNC(=N)N)C(=O)N[C@@H](C)C(=O)N2 [Compound 12, WGEECRACAEKT] (cyclo(ACAEKTWGEECR); disulfide 2-11) | comparable | significantly improved stability | – | – | – | – | – | – | – | –
C[C@@H]1NC(=O)[C@@H]2CSSC[C@H](NC(=O)[C@H]([C@@H](C)O)NC(=O)[C@H](CCC(=O)O)NC(=O)CNC(=O)[C@H](Cc3c[nH]c4ccccc34)NC(=O)[C@H](CO)NC(=O)[C@H](CCCCN)NC(=O)[C@H](CCC(=O)O)NC1=O)C(=O)N[C@@H](CCCCN)C(=O)NCC(=O)NCC(=O)N2 [Compound 26, WGETCKGGCAEKS] (cyclo(AEKSWGETCKGGC); disulfide 9-13) | comparable | significantly improved stability | – | – | – | – | – | – | – | –
